From PubChem BioAssay (NCI)
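Protocol summary: plate cells (96-well), add compound at 5 concentrations, incubate 48 h, interpolate endpoints linearly. At the GI50, growth is halved. TGI: total growth inhibition.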

Assays:
Assay in all cases: DTP human tumour cell line panel, 48 h
MDA-MB-468 breast = tested on: MDA-MB-468 breast
NCI-H522 lung = tested on: NCI-H522 lung
A498 renal = tested on: A498 renal
BT-549 breast = tested on: BT-549 breast
OVCAR-4 ovarian = tested on: OVCAR-4 ovarian
PC-3 prostate = tested on: PC-3 prostate
A549 NSCLC = tested on: A549 NSCLC
NCI-H460 lung = tested on: NCI-H460 lung
U251 CNS = tested on: U251 CNS
SR leukemia = tested on: SR leukemia
DU-145 prostate = tested on: DU-145 prostate
SF-539 CNS = tested on: SF-539 CNS
HCT-116 colon = tested on: HCT-116 colon
NCI-H23 lung = tested on: NCI-H23 lung
SF-295 CNS = tested on: SF-295 CNS
HCT-15 colon = tested on: HCT-15 colon
SK-MEL-5 melanoma = tested on: SK-MEL-5 melanoma
OVCAR-5 ovarian = tested on: OVCAR-5 ovarian
RPMI-8226 leukemia = tested on: RPMI-8226 leukemia
CAKI-1 renal = tested on: CAKI-1 renal
SN12C renal = tested on: SN12C renal
SK-MEL-28 melanoma = tested on: SK-MEL-28 melanoma
COLO 205 colon = tested on: COLO 205 colon
786-0 renal = tested on: 786-0 renal
T-47D breast = tested on: T-47D breast
UACC-257 melanoma = tested on: UACC-257 melanoma
SK-OV-3 ovarian = tested on: SK-OV-3 ovarian
NCI/ADR-RES ovarian = tested on: NCI/ADR-RES ovarian
ACHN renal = tested on: ACHN renal
UO-31 renal = tested on: UO-31 renal
SW-620 colon = tested on: SW-620 colon
MALME-3M melanoma = tested on: MALME-3M melanoma
MDA-MB-231 breast = tested on: MDA-MB-231 breast
MCF7 breast = tested on: MCF7 breast
RXF 393 renal = tested on: RXF 393 renal
LOX IMVI melanoma = tested on: LOX IMVI melanoma
KM12 colon = tested on: KM12 colon
UACC-62 melanoma = tested on: UACC-62 melanoma
SNB-19 CNS = tested on: SNB-19 CNS
SF-268 CNS = tested on: SF-268 CNS
CCRF-CEM leukemia = tested on: CCRF-CEM leukemia
SNB-75 CNS = tested on: SNB-75 CNS
HS 578T breast = tested on: HS 578T breast
MOLT-4 leukemia = tested on: MOLT-4 leukemia
EKVX NSCLC = tested on: EKVX NSCLC
IGROV1 ovarian = tested on: IGROV1 ovarian
HL-60(TB) leukemia = tested on: HL-60(TB) leukemia
HOP-62 NSCLC = tested on: HOP-62 NSCLC
MDA-MB-435 = tested on: MDA-MB-435
TK-10 renal = tested on: TK-10 renal
K-562 leukemia = tested on: K-562 leukemia
HCC-2998 colon = tested on: HCC-2998 colon
OVCAR-8 ovarian = tested on: OVCAR-8 ovarian
SK-MEL-2 melanoma = tested on: SK-MEL-2 melanoma
M14 melanoma = tested on: M14 melanoma
NCI-H226 lung = tested on: NCI-H226 lung
OVCAR-3 ovarian = tested on: OVCAR-3 ovarian
HOP-92 NSCLC = tested on: HOP-92 NSCLC
HT29 colon = tested on: HT29 colon

Cc1ccc(-c2nc(C#N)c(S(=O)(=O)N3CCN(S(C)(=O)=O)CC3)o2)cc1
GI50 (MDA-MB-468 breast): 28.2 µM
TGI (MDA-MB-468 breast): > 100 µM
GI50 (NCI-H522 lung): 2170 nM
TGI (NCI-H522 lung): 5.94 µM
GI50 (A498 renal): > 100 µM
TGI (A498 renal): > 100 µM
GI50 (BT-549 breast): 47.4 µM
TGI (BT-549 breast): > 100 µM
GI50 (OVCAR-4 ovarian): > 100 µM
TGI (OVCAR-4 ovarian): > 100 µM
GI50 (PC-3 prostate): > 100 µM
TGI (PC-3 prostate): > 100 µM
GI50 (A549 NSCLC): > 100 µM
TGI (A549 NSCLC): > 100 µM
GI50 (NCI-H460 lung): > 100 µM
TGI (NCI-H460 lung): > 100 µM
GI50 (U251 CNS): 51.7 µM
TGI (U251 CNS): > 100 µM
GI50 (SR leukemia): 3.16 µM
TGI (SR leukemia): 26 µM
GI50 (DU-145 prostate): > 100 µM
TGI (DU-145 prostate): > 100 µM
GI50 (SF-539 CNS): 73.3 µM
TGI (SF-539 CNS): > 100 µM
GI50 (HCT-116 colon): 11.8 µM
TGI (HCT-116 colon): 34.7 µM
GI50 (NCI-H23 lung): 19.3 µM
TGI (NCI-H23 lung): > 100 µM
GI50 (SF-295 CNS): 61.7 µM
TGI (SF-295 CNS): > 100 µM
GI50 (HCT-15 colon): 3.81 µM
TGI (HCT-15 colon): 62.5 µM
GI50 (SK-MEL-5 melanoma): > 100 µM
TGI (SK-MEL-5 melanoma): > 100 µM
GI50 (OVCAR-5 ovarian): > 100 µM
TGI (OVCAR-5 ovarian): > 100 µM
GI50 (RPMI-8226 leukemia): 26.7 µM
TGI (RPMI-8226 leukemia): > 100 µM
GI50 (CAKI-1 renal): > 100 µM
TGI (CAKI-1 renal): > 100 µM
GI50 (SN12C renal): 75.1 µM
TGI (SN12C renal): > 100 µM
GI50 (SK-MEL-28 melanoma): > 100 µM
TGI (SK-MEL-28 melanoma): > 100 µM
GI50 (COLO 205 colon): > 100 µM
TGI (COLO 205 colon): > 100 µM
GI50 (786-0 renal): 64 µM
TGI (786-0 renal): > 100 µM
GI50 (T-47D breast): 19.2 µM
TGI (T-47D breast): > 100 µM
GI50 (UACC-257 melanoma): 60.4 µM
TGI (UACC-257 melanoma): > 100 µM
GI50 (SK-OV-3 ovarian): > 100 µM
TGI (SK-OV-3 ovarian): > 100 µM
GI50 (NCI/ADR-RES ovarian): 28 µM
TGI (NCI/ADR-RES ovarian): > 100 µM
GI50 (ACHN renal): 44.1 µM
TGI (ACHN renal): > 100 µM
GI50 (UO-31 renal): > 100 µM
TGI (UO-31 renal): > 100 µM
GI50 (SW-620 colon): 2480 nM
TGI (SW-620 colon): 6.92 µM
GI50 (MALME-3M melanoma): > 100 µM
TGI (MALME-3M melanoma): > 100 µM
GI50 (MDA-MB-231 breast): > 100 µM
TGI (MDA-MB-231 breast): > 100 µM
GI50 (MCF7 breast): 3.74 µM
TGI (MCF7 breast): > 100 µM
GI50 (RXF 393 renal): 75.6 µM
TGI (RXF 393 renal): > 100 µM
GI50 (LOX IMVI melanoma): 2970 nM
TGI (LOX IMVI melanoma): 16 µM
GI50 (KM12 colon): > 100 µM
TGI (KM12 colon): > 100 µM
GI50 (UACC-62 melanoma): > 100 µM
TGI (UACC-62 melanoma): > 100 µM
GI50 (SNB-19 CNS): > 100 µM
TGI (SNB-19 CNS): > 100 µM
GI50 (SF-268 CNS): > 100 µM
TGI (SF-268 CNS): > 100 µM
GI50 (CCRF-CEM leukemia): 3.83 µM
TGI (CCRF-CEM leukemia): > 100 µM
GI50 (SNB-75 CNS): > 100 µM
TGI (SNB-75 CNS): > 100 µM
GI50 (HS 578T breast): > 100 µM
TGI (HS 578T breast): > 100 µM
GI50 (MOLT-4 leukemia): 7.61 µM
TGI (MOLT-4 leukemia): 37 µM
GI50 (EKVX NSCLC): > 100 µM
TGI (EKVX NSCLC): > 100 µM
GI50 (IGROV1 ovarian): > 100 µM
TGI (IGROV1 ovarian): > 100 µM
GI50 (HL-60(TB) leukemia): 65.2 µM
TGI (HL-60(TB) leukemia): > 100 µM
GI50 (HOP-62 NSCLC): > 100 µM
TGI (HOP-62 NSCLC): > 100 µM
GI50 (MDA-MB-435): 37.8 µM
TGI (MDA-MB-435): > 100 µM
GI50 (TK-10 renal): > 100 µM
TGI (TK-10 renal): > 100 µM
GI50 (K-562 leukemia): 6.66 µM
TGI (K-562 leukemia): > 100 µM
GI50 (HCC-2998 colon): 53.8 µM
TGI (HCC-2998 colon): > 100 µM
GI50 (OVCAR-8 ovarian): 23.2 µM
TGI (OVCAR-8 ovarian): > 100 µM
GI50 (SK-MEL-2 melanoma): > 100 µM
TGI (SK-MEL-2 melanoma): > 100 µM
GI50 (M14 melanoma): 26.3 µM
TGI (M14 melanoma): > 100 µM
GI50 (NCI-H226 lung): > 100 µM
TGI (NCI-H226 lung): > 100 µM
GI50 (OVCAR-3 ovarian): 24.6 µM
TGI (OVCAR-3 ovarian): > 100 µM
GI50 (HOP-92 NSCLC): > 100 µM
TGI (HOP-92 NSCLC): > 100 µM
GI50 (HT29 colon): 37.1 µM
TGI (HT29 colon): > 100 µM
